Data from patent US5631279A, “Perhydroisoindole derivatives, preparation thereof and pharmaceutical compositions containing same” (Rhone-Poulenc Rorer, S.A., priority 1993, dated 1997).

Test system: rabbit pulmonary artery
Experiment: Antagonism of rabbit pulmonary artery contractions induced by [Lys5 MeLeu9 Nle10]NKA(4-10)
Set-up: species or system rabbit (male, New Zealand albino)
Settings: product incubated for 2 hours; [Lys5 MeLeu9 Nle10]NKA(4-10) as agonist; Krebs solution 37° C.
Experimental: The in vitro antagonistic activity of the products is determined with respect to rabbit pulmonary artery contractions induced by [Lys^5 MeLeu^9 Nle^10 ]NKA(4-10) according to the technique described by D. Regoli et al., Trends Pharmacol. Sci, 2, 290-295 (1988) and P. D'Orleans-Juste et al., Eur. J. Pharmacol., 125, 37-44 (1985). The pulmonary artery of the rabbit (male, New Zealand albino) is withdrawn; the endothelium is destroyed by introduction into the arterial lumen of a glass rod coated with filter paper, and the artery is then cut into rings and incubated in an isolated-organ tank containing an oxygenated Krebs solution (95% O2; 5% CO2) at 37° C. at a tension of 1 g. After determining the agonistic activity of [Lys^5 MeLeu9Nle^10 ]NKA(4-10) (contractile effect), the product to be studied is incubated for 2 hours in the isolated-organ tank before a further addition of [Lys^5 MeLeu^9 Nle^10 ]NKA(4-10). The percentage inhibition obtained is calculated. The antagonistic activity of a product is expressed in terms of IC^50.
In the above technique, the products studied display an antagonism to rabbit pulmonary artery contractions at the following concentration: […]

- IC50: 215 nM
SMILES: COc1ccccc1[C@@]1(O)[C@H](O)CC(c2ccccc2)(c2ccccc2)[C@@H]2CN(C(=O)Cc3c[nH]c4ccccc34)C[C@@H]21 [Example 1]
